Earlier results, collected in patent US20110305738A1, “Oxygenating Oral Compositions” (priority 2010, published 2011).

Experiments:
[1] = not given; remark: listed apart in the source

water solubility (at 20 °C): 800 grams per liter
saturated solution concentration of carbamide peroxide (water at 20° C.): 44.4%
pH upon dissolution ([1]; 1% solution): approximately 4.05
pH when solubilized in water ([1]; saturated solution): approximately 3.40
Structure (SMILES): NC(N)=O.OO [Carbamide peroxide]
